According to patent US10479752B2, “Deuterated tetramethyl dioic acids, compositions comprising them and uses thereof” (SYNDROMEX LTD., priority 2011, dated 2019):

Columns and labels:
[1] = Comparative oral bioavailability / pharmacokinetic study, single intravenous and oral administration; assay type: in vivo; conditions: rat; for C0 / t1/2 / AUCinf / Cmax / tmax: Mean CV (%); for F (oral bioavailability): 50 mg/kg po vs 5 mg/kg iv, Mean (CV %); for tmax of the individual treated rats: oral administration 50 mg/kg, post-dose
Protocol: The pharmacokinetic properties and the oral bioavailability were investigated for the following comparative compounds:
The plasma concentrations of the test items were measured by LC/MS/MS method following single intravenous and oral administration at the doses of 5 mg/kg body weight and 50 mg/kg body weight, respectively. Following intravenous administration small inter-individual variability was observed. Following i.v administration, the highest plasma concentrations were measured at the first sampling time-point (5 minutes) followed by a biphasic continuous decrease. […] The peak concentrations, tmax and the apparent terminal elimination half-lives (t1/2) were the followings:
The vehicle for oral administration was prepared in advance. Preparation: 1 g of carboxymethylcellulose sodium salt was dissolved in 100 ml of Humaqua. The vehicle was prepared at least 2 days prior to formulation of the test items. The vehicle was stored in a refrigerator when not in use.
The required amount of test item was weighed on an analytical balance, transferred into a suitable vial. The test item was dissolved in the required volume of N,N-dimethylacetamide (40% of the final volume). Dissolution of the test item was facilitated by gentle mixing by vortex. The solution was diluted with the suitable volume of PEG400 (40% of the final volume) then Salsol A (20% of the final volume). The final concentration of the test item in the solution was 5 mg/ml. The formulations were prepared freshly on the day of administration.
The required amount of test item was weighed on an analytical balance, transferred into a test tube and mixed with the suitable volume of 1% CMC to achieve the final concentration of 25 mg/ml. The suspension was sonicated twice in bath sonicator for 30 min at 40 C (each round), and left overnight at room temperature. On the following day, the suspension was sonicated again (bath sonicator, 30 min, 40° C.) and further homogenized in a glass/glass homogenizer trying to reaching an homogenous suspension. In spite of the above procedure the quality (homogeneity) of the suspension was not perfect. The suspension was stored at room temperature till administration.
Species/Strain rat/Wistar (Crl:(WI)BR rats)
Number of animals: 24 males (at least 32 for cannulation*)
After the acclimatization period, rats were equipped with a jugular vein cannula under isoflurane anesthesia. The following day the animals were used for the study. In the morning the rats were checked for health status and blood sampling before assigning them into the experimental group.
The terminal elimination phase was defined on the basis of the last 3-5 measured concentration except rat A4. […] The central volume of distribution (Vc: […]) was approximately equal to the total blood volume. The volume of distribution estimated for the steady state situation (Vss: 97.3-143 ml/kg) remained also small compared to the total extracellular fluid volume (˜300 ml/kg). The clearance was also very small for all experimental compound analogues. The smallest clearance was obtained for Compound 7: 23.2 ml/h/kg.

[2] = Chemical and isotopic stability as solutions in DMSO/phosphate buffered saline over 48 hours; conditions: for chemical purity (HPLC area percent) with respect to related substances: all samples through the study; for analyte recovered, yield: summary over the study; for disenrichment of the product (isotopic stability): throughout the time period of the study
Protocol: A 1 mg/mL stock solution (˜55 mL) of deuterated compound in DMSO was prepared. A measured volume of stock (7.5 mL) was dispensed in to each of seven vials. To each vial was added a measured volume of PBS (aq) (3.0 mL), and each vial was agitated to mix. The vials were then placed in a thermostatically-controlled oven set to 37° C. At each time-point (0 h, 2 h, 4 h, 24 h, 48 h) a vial was drawn from the oven. To the vial was added MTBE (9.0 mL), and the mixture was stirred vigorously for 5 min. The layers were separated, and the MTBE layer was agitated with DI water (3.75 mL) for 1 min. The layers were separated. The MTBE layer was dried with MgSO4 for >1 h, and then filtered through a PTFE syringe filter into a tared vial. The solution was concentrated in vacuo to a solid residue, and the mass of the residue was calculated and recorded. To the residue a measured volume of MeOH was added to make (theoretically) a 2.5 mg/mL solution. In this case, 3.00 mL MeOH was added to each vial which theoretically contained 7.5 mg of compound. The content of each solution was measured by quantitative HPLC analysis (by comparison to a standard of known concentration). The MeOH solutions were then recovered, concentrated in vacuo to a solid, and then analyzed by GCMS to determine isotopic enrichment as the methyl ester derivatives.

Male db/db Mouse Model = test: Comparative in vivo efficacy study, 3 h-fasting blood glucose; conditions: db/db mice
Protocol: Male db/db Mouse Model. Age of animal at start of treatment: 10-11 weeks. Animals per treatment group: 6-7 mice per each group.
Vehicle control: (1% CMC in water).
Positive control: Rosiglitazone, 25 mg/kg.
Group I: Compound 7″, 12.5 mg/kg.
Group II: Compound 7″, 25 mg/kg. […]
Group IV: Compound 7, 25 mg/kg.
Duration of treatment: 15 days.
1. Dosing: Animals are 10-11 weeks of age and were allowed to acclimate 1-2 weeks. After acclimation, animals were entered to the study and were […] daily for a duration of 15 days.
2. Formulation: compounds were formulated with […]. Formulation also involve sonication and vortexing before use.
4. Fasting Glucose Levels: 3 h-Fasting glucose levels were measured on tail blood of all the animals on days 0, 6, 12, and 16 (not shown) of the study using glucose sticks (Proforma).

[3] = DMSO/PBS solution, 37° C., 24 h
[4] = DMSO/PBS solution, 37° C., 48 h
[5] = Original Sample (before the stability study)

[2H]C([2H])([2H])C(CCCCCCCCCCC(C([2H])([2H])[2H])(C([2H])([2H])[2H])C([2H])([2H])C(=O)O)(C([2H])([2H])[2H])C([2H])([2H])C(=O)O [Compound 1, 3,3,14,14-[D16]Tetramethyl-1,16-hexadecanedoic acid]
C0 ([1]; 5 mg/kg iv dose): 67.0 (8.8%) μg/ml
t1/2 ([1]; 5 mg/kg iv dose): 2.81 (28.5%) h
AUCinf ([1]; 5 mg/kg iv): 137 (19.3%) h * μg/ml
Cmax ([1]; 50 mg/kg po dose): 114 (19.6%) μg/ml
t1/2 ([1]; 50 mg/kg po dose): 4.29 (15.7%) h
tmax ([1]; 50 mg/kg po dose): 4 (0%) h
F (oral bioavailability) [1]: 91.0 (11.1) %
AUCinf ([1]; 50 mg/kg po): 1246 (11.1%) h * μg/ml
tmax of the individual treated rats [1]: 4 h
GC/MS IE (isotopic enrichment) ([2]; DMSO/PBS solution, 37° C., 0 h): 98.3%
HPLC Area Percentage ([2]; DMSO/PBS solution, 37° C., 0 h): 98.1%
HPLC Assay ([2]; DMSO/PBS solution, 37° C., 0 h): 66.5%
GC/MS IE (isotopic enrichment) ([2]; DMSO/PBS solution, 37° C., 2 h): 98.2%
HPLC Area Percentage ([2]; DMSO/PBS solution, 37° C., 2 h): 97.2%
HPLC Assay ([2]; DMSO/PBS solution, 37° C., 2 h): 64.5%
GC/MS IE (isotopic enrichment) ([2]; DMSO/PBS solution, 37° C., 4 h): 98.2%
HPLC Area Percentage ([2]; DMSO/PBS solution, 37° C., 4 h): 97.8%
HPLC Assay ([2]; DMSO/PBS solution, 37° C., 4 h): 70.1%
GC/MS IE (isotopic enrichment) [2, 3]: 98.3%
HPLC Area Percentage [2, 3]: 97.6%
HPLC Assay [2, 3]: 89.3%
GC/MS IE (isotopic enrichment) [2, 4]: 98.3%
HPLC Area Percentage [2, 4]: 97.5%
HPLC Assay [2, 4]: 86.3%
chemical purity (HPLC area percent) with respect to related substances ([2]; DMSO/PBS solution, 37° C.): around 97%
analyte recovered, yield ([2]; DMSO/PBS solution, 37° C.): over 90%
disenrichment of the product (isotopic stability) ([2]; DMSO/PBS solution, 37° C.): No disenrichment
GC/MS IE (isotopic enrichment) [2, 5]: 98.3%
HPLC Area Percentage [2, 5]: 100.0%

[2H]C([2H])([2H])C(CCCCCCCCCCCCC(C(=O)O)(C([2H])([2H])[2H])C([2H])([2H])[2H])(C(=O)O)C([2H])([2H])[2H] [Compound 7, 2,2,15,15-Tetramethyl(D12)-hexadecanedioic acid]
C0 ([1]; 5 mg/kg iv dose): 64.3 (16.9%) μg/ml
t1/2 ([1]; 5 mg/kg iv dose): 2.14 (2.6%) h
AUCinf ([1]; 5 mg/kg iv): 218 (14.9%) h * μg/ml
Cmax ([1]; 50 mg/kg po dose): 151 (29.0%) μg/ml
t1/2 ([1]; 50 mg/kg po dose): 6.64 (50.3%) h
tmax ([1]; 50 mg/kg po dose): 4 (0%) h
F (oral bioavailability) [1]: 102 (36.8) %
AUCinf ([1]; 50 mg/kg po): 2221 (36.8%) h * μg/ml
mean residence time ([1]; intravenous administration): 4.2 h
clearance ([1]; iv administration): 0.387 mL/min/kg
mean residence time ([1]; oral administration): 11.8 h
tmax of the individual treated rats [1]: 4 h
efficacy on 3 h-fasting blood glucose, in words (Male db/db Mouse Model; Group III (Compound 7, 25 mg dose) compared with Groups I and II (Compound 7″)): exceeds that of both treatment Groups I and II
glucose level reached (normalized plasma levels) (Male db/db Mouse Model; Group IV (Compound 7, 25 mg)): less than 110 mg %
efficacy on 3 h-fasting blood glucose, in words (Male db/db Mouse Model; Group IV (Compound 7, 25 mg), days 0, 6, 12, compared with Rosiglitazone 25 mg/kg): greater efficacy as compared with Rosiglitazone
GC/MS IE (isotopic enrichment) ([2]; DMSO/PBS solution, 37° C., 0 h): 99.9%
HPLC Area Percentage ([2]; DMSO/PBS solution, 37° C., 0 h): 96.8%
HPLC Assay ([2]; DMSO/PBS solution, 37° C., 0 h): 89.4%
GC/MS IE (isotopic enrichment) ([2]; DMSO/PBS solution, 37° C., 2 h): 99.9%
HPLC Area Percentage ([2]; DMSO/PBS solution, 37° C., 2 h): 95.4%
HPLC Assay ([2]; DMSO/PBS solution, 37° C., 2 h): 101.6%
GC/MS IE (isotopic enrichment) ([2]; DMSO/PBS solution, 37° C., 4 h): 99.9%
HPLC Area Percentage ([2]; DMSO/PBS solution, 37° C., 4 h): 95.8%
HPLC Assay ([2]; DMSO/PBS solution, 37° C., 4 h): 91.6%
GC/MS IE (isotopic enrichment) [2, 3]: 99.9%
HPLC Area Percentage [2, 3]: 96.9%
HPLC Assay [2, 3]: 92.3%
GC/MS IE (isotopic enrichment) [2, 4]: 99.9%
HPLC Area Percentage [2, 4]: 96.7%
HPLC Assay [2, 4]: 82.2%
chemical purity (HPLC area percent) with respect to related substances ([2]; DMSO/PBS solution, 37° C.): around 96%
analyte recovered, yield ([2]; DMSO/PBS solution, 37° C.): approximately 90%
disenrichment of the product (isotopic stability) ([2]; DMSO/PBS solution, 37° C.): No disenrichment
GC/MS IE (isotopic enrichment) [2, 5]: 99.9%
HPLC Area Percentage [2, 5]: 99.5%
